# Tested on: healthy participants
# Assay: Conner's Continuous Performance Task (CPT)
# Type: in vivo, human
# Details: for CPT Commission Errors / CPT Hit Response Time / CPT Omission Errors / CPT Perseverations: mean (SD)
# Experimental: (§1) The Conner’s Continuous Performance Task (CPT; [32]) tested sustained attention to a target. Participants saw a string of letters appearing one at a time on a computer screen. Participants were asked to press the spacebar whenever the target stimulus (any letter except for the X) appeared. Participants were asked to withhold responding when a X was presented, which is the non-target stimulus. A set of 15 outcome measures derived from the task report were recorded as key variables. These measures include Hit RT, Hit Standard Error, Commission, Omission and Perseveration errors, Sensitivity, Response style, and the Hit standard error across different interstimulus intervals.
# Cognitive data: In this exploratory analysis, each outcome variable of the cognitive data was examined in a mixed model analysis of variance with one between-subjects factor of VU319 dose (0, 60, 120, 240, 400, 600 mg) and a within-subjects factor of testing session (pre-dose vs. post-dost administration). Post-hoc analysis compared each of the VU319 dose cohorts against the placebo group. Because the participants were healthy adults with normal cognitive function, we considered effects between no reductions in function to small improvement (d = 0.0–0.20) to be a positive result. For the food effect study, only the participants who received VU319 were examined due to the disproportionately small placebo group (n = 2). A within-subjects ANOVA including food condition (fasted/fed) and testing session (pre-dose vs. post-dose administration) was performed on each outcome variable.
# as §1, with “(Conners et al., 2000))” for “[32])”
# [1] = Food effect study 120 mg, Fasting, Post-Drug, n = 9
# [2] = Food effect study 120 mg, Fasting, Pre-Drug, n = 9
# [3] = Food effect study 120 mg, Fed, Post-Drug, n = 9
# [4] = Food effect study 120 mg, Fed, Pre-Drug, n = 9
structure (smiles),measurement,setting,value
Cn1cc2c(-c3cc(F)c(CN4Cc5ncccc5C4=O)c(F)c3)cccc2n1 [VU319],"CPT Hit RT, 600 mg vs placebo, effect size d","600 mg, pre-dose to post-dose",1.48
same,"CPT Hit RT, pre- to post-dose change, mean difference vs placebo","600 mg, p = 0.012",-28.12
same,CPT Commission Errors,[1],12.6 (6.62)
same,CPT Hit Response Time,[1],387.85 (64.33) ms
same,CPT Omission Errors,[1],4.33 (7.16)
same,CPT Perseverations,[1],2.56 (6.93)
same,CPT Commission Errors,[2],11.6 (5.68)
same,CPT Hit Response Time,[2],395.78 (51.66) ms
same,CPT Omission Errors,[2],4.56 (10.4)
same,CPT Perseverations,[2],3.89 (11.7)
same,CPT Commission Errors,[3],12.3 (6.2)
same,CPT Hit Response Time,[3],381.1 (71.8) ms
same,CPT Omission Errors,[3],2 (4.24)
same,CPT Perseverations,[3],1.78 (2.44)
same,CPT Commission Errors,[4],11.1 (5.58)
same,CPT Hit Response Time,[4],381.6 (59.56) ms
same,CPT Omission Errors,[4],1.22 (1.48)
same,CPT Perseverations,[4],0.44 (1.01)
same,CPT Commission Errors,"SAD study, 60 mg, Post-Drug",13.33 (4.37)
same,CPT Hit Response Time,"SAD study, 60 mg, Post-Drug",407.08 (66.44) ms
same,CPT Omission Errors,"SAD study, 60 mg, Post-Drug",3.33 (4.55)
same,CPT Perseverations,"SAD study, 60 mg, Post-Drug",0 (0)
same,CPT Commission Errors,"SAD study, 60 mg, Pre-Drug",12.83 (4.07)
same,CPT Hit Response Time,"SAD study, 60 mg, Pre-Drug",393.27 (46.65) ms
same,CPT Omission Errors,"SAD study, 60 mg, Pre-Drug",1 (1.27)
same,CPT Perseverations,"SAD study, 60 mg, Pre-Drug",0.33 (0.52)
same,CPT Commission Errors,"SAD study, 120 mg, Post-Drug",15.33 (5.92)
same,CPT Hit Response Time,"SAD study, 120 mg, Post-Drug",356.2 (29.58) ms
same,CPT Omission Errors,"SAD study, 120 mg, Post-Drug",4.67 (5.28)
same,CPT Perseverations,"SAD study, 120 mg, Post-Drug",1.5 (1.98)
same,CPT Commission Errors,"SAD study, 120 mg, Pre-Drug",15.5 (6.66)
same,CPT Hit Response Time,"SAD study, 120 mg, Pre-Drug",361.23 (27.25) ms
same,CPT Omission Errors,"SAD study, 120 mg, Pre-Drug",0.83 (0.75)
same,CPT Perseverations,"SAD study, 120 mg, Pre-Drug",0 (0)
same,CPT Commission Errors,"SAD study, 240 mg, Post-Drug",12 (1.55)
same,CPT Hit Response Time,"SAD study, 240 mg, Post-Drug",372.94 (64.52) ms
same,CPT Omission Errors,"SAD study, 240 mg, Post-Drug",2.33 (2.58)
same,CPT Perseverations,"SAD study, 240 mg, Post-Drug",0.83 (1.6)
same,CPT Commission Errors,"SAD study, 240 mg, Pre-Drug",11.33 (3.62)
same,CPT Hit Response Time,"SAD study, 240 mg, Pre-Drug",372.21 (43.06) ms
same,CPT Omission Errors,"SAD study, 240 mg, Pre-Drug",1 (1.27)
same,CPT Perseverations,"SAD study, 240 mg, Pre-Drug",0.5 (1.23)
same,CPT Commission Errors,"SAD study, 400 mg, Post-Drug",9.5 (3.08)
same,CPT Hit Response Time,"SAD study, 400 mg, Post-Drug",365.85 (33.44) ms
same,CPT Omission Errors,"SAD study, 400 mg, Post-Drug",1.67 (1.97)
same,CPT Perseverations,"SAD study, 400 mg, Post-Drug",0.33 (0.82)
same,CPT Commission Errors,"SAD study, 400 mg, Pre-Drug",10.33 (2.81)
same,CPT Hit Response Time,"SAD study, 400 mg, Pre-Drug",374.41 (25.8) ms
same,CPT Omission Errors,"SAD study, 400 mg, Pre-Drug",0.67 (1.2)
same,CPT Perseverations,"SAD study, 400 mg, Pre-Drug",0.17 (0.41)
same,CPT Commission Errors,"SAD study, 600 mg, Post-Drug",17 (8.49)
same,CPT Hit Response Time,"SAD study, 600 mg, Post-Drug",356.18 (45.08) ms
same,CPT Omission Errors,"SAD study, 600 mg, Post-Drug",1.5 (2.35)
same,CPT Perseverations,"SAD study, 600 mg, Post-Drug",1.5 (3.21)
same,CPT Commission Errors,"SAD study, 600 mg, Pre-Drug",13 (5.66)
same,CPT Hit Response Time,"SAD study, 600 mg, Pre-Drug",387.39 (51.74) ms
same,CPT Omission Errors,"SAD study, 600 mg, Pre-Drug",1.33 (3.27)
same,CPT Perseverations,"SAD study, 600 mg, Pre-Drug",0.33 (0.82)
same,"CPT hit response time, dose by time interaction, effect size d","SAD study, p = 0.063, faster following higher doses",1.19
same,"CPT, effects of food or time","food effect study, 120 mg",no significant effects of food or time

# From publication PMC12211128, “Safety, tolerability, pharmacokinetic and pharmacodynamic effects of the muscarinic M1 positive allosteric modulator VU0467319 for Alzheimer’s disease: a single ascending-dose study in healthy participants” (Alzheimer's Research & Therapy, 2025)
